Source: US20060211606A1, “Peptides” (priority 2005, published 2006)
*1 amine or outer side, *2 acyl side, *3 side chain or, on linkers, in order; H or OH if unused. [ ]: non-standard residue; d: D form. PEG (Jeffamine) = not defined here; Suc = O=C(CCC(=O)[*:2])[*:1]

Legend:
[1] = test system: rat organotypic hippocampal cultures; experiment: TBH oxidative stress in rat organotypic hippocampal cultures, PI-stained cell death; assay type: cell-based; details: for time for which the neuroprotective effect was observed: rat hippocampal slices after TBH challenge; for protection against TBH-induced cell death: rat hippocampal slices, 24 hours, peptide 10 ng/ml as printed
Procedure: Hippocampal slices were prepared from 7-10 days old Wistar rats according to the method of Stoppini et al (1991) with minor modifications according to Sarnowska (2002). Briefly, rats were anaesthetised with Vetbutal, ice-cooled and decapitated. Brains were quickly removed to ice-cold working solution pH 7.2: 96% of HBSS/HEPES-(Ca2^+ and Mg2^+ free) containing 2 mmol/L L-glutamine, 5 mg/ml glucose, 1% amphotericine B, 0.4% penicillin-streptomycin. Hippocampi were separated and cut into 400 μm slices using McIlwain tissue chopper. […] Four selected slices were settled on each membrane. Slices were cultivated for two weeks at 32° C. in 5% CO2 atmosphere of 100% humidity. The viability of the slices was checked daily under the light microscopy and evaluated additionally on the day of experiment by propidium iodide staining and observed under fluorescent microscope (Zeiss Axiovert 25) with MC-10095 camera (Carl Zeiss Jena GmbH) in order to record initial PI uptake (Sarnowska, 2002).
Oxidative stress was induced after 14 days in culture by adding 30 mM TBH ([…]) for 3 hours. After that time the slices were transferred to the fresh culture medium. Resulting cell death was assessed 24 and 48 h after the beginning of the experiment.
In order to investigate a pathway in which the MGF acts, a specific anti-IGF-1 receptor (AB-1) blocking antibody (Oncogene) was included in the medium 1 hour before the slices were exposed to TBH and MGF or IGF-1 peptide. The concentration of the antibody (1000 ng/ml) was used according to the manufacturer's recommendation.
To obtain detailed images of the slices, a confocal laser scanning microscope (Zeiss LSM 510) was used. A helium-neon laser (543 nm) was used for the excitation of propidium iodide (PI). […] Quantitative measurement of tissue deterioration was performed using image analyser KS 300 (Carl Zeiss Jena GmbH).
Cell damage was quantified on fluorescence images of PI-stained cultures 24 and 48 hours after TBH challenge. The relative extent of cell death was calculated from each standardized CA1 region as follows: % of dead cells=(experimental fluorescent intensity (FI)−background FI)/(maximal FI−background FI)×100, where maximal FI was obtained by killing all cells with exposure to 100 mM glutamate.
All the measurements were repeated for 5 independent culture preparations and 8 slices were used for each experimental condition. Statistical significance of the differences between the results was calculated using one-way Anova followed by Dunnet's test, (GraphPad Prism 3.02).
Rat brain slices were isolated following induction of localized damage by TBH (tert-butyl hydroperoxide) as discussed above. The resulting cell death in treated and non-treated brain slices was determined. […]

CA1 hippocampal neurones = experiment: Gerbil model of brain ischemia, intact CA1 hippocampal neurones; assay type: in vivo, Mongolian gerbils; details: 25 μg injection, 7 days after the insult
Procedure: Other experiments were carried out using a Gerbil model of brain ischemia.
In the gerbil brain, bilateral ligation of the common carotid arteries invariably produces specific hippocampal lesions: in the CA1 region, pyramidal neurones start to die 3-4 days after ischemia.
Male Mongolian gerbils weighing 50-60 g were used. The ischemic insult was performed by 5 min. ligation of the common carotid arteries under halotane in N2O:O2 (70:30) anaesthesia in strictly controlled normothermic conditions as previously described (Domańiska-Janik et al., 2004). The cerebral blood flow was continuously monitored by laser Doppler flowmetry (Muro, Inc.). […] Sham operated animals were injected with the same dose of the peptide.
The animals were allowed a recovery period of one week, then were perfused with ice-cold 4% paraformaldehyde in PBS under pentobarbital anaesthesia. The histological evaluation was performed on paraffin-embedded and fixed, 10 mm-thick sections stained by hematoxylline/eosine. The extent of cell damage in the CA1 hippocampal region was quantified, under a Zeiss Axioscop 2, as the mean number of the persisted, intact neurons in the coronal sections. At least three defined 300 μm fields of the CA1 region were captured using a MC 10095 camera (Carl Zeiss Jena GmbH) and counted in a computer-assisted image analysis system (KS 300, Carl Zeiss Jena GmbH).

[2] = test system: tibialis anterior muscle of non-dystrophic mice; experiment: Intramuscular injection into tibialis anterior of non-dystrophic mice, muscle strength; assay type: in vivo; details: i.m. twice weekly 25 μl containing 17 μg, within a few weeks
infarcted murine heart = experiment: Murine myocardial infarction (LAD ligation), pressure/volume loops; assay type: in vivo, mice; details: murine MI by LAD ligation; systemic administration
Procedure: All panels show pressure (mmHg) on the Y-axis and Relative Volume Units on the X-axis.
Additional experiments were carried out on mice. In these studies the MI was produced by ligating the left anterior descending (LAD) coronary artery of the murine heart. This causes dilation of the left ventricle, the progression of which leads to heart failure. […] Therefore there is considerable potential for treatment of patients immediately following a heart attack.

[3] = Stability to proteolytic cleavage in fresh human plasma, Western blotting; details: fresh human plasma plus PBS, 37° C., 24 hours
Procedure: Western blotting was then used to assess the survival of each peptide over those time intervals: A=0 minutes; B=30 minutes; C=2 hours; D=24 hours.
Stability may be assessed in terms of half-life in human plasma or by any other suitable technique. In particular, stability can be measured by assessing peptides' susceptibility to proteolytic cleavage in fresh human plasma according to the technique of Example 5.1 below, in which the plasma was stored until used at −70° C., 10 μg of peptide was added to 2 ml of plasma, plus 7 ml of PBS and the mixture was incubated at 37° C. for different time intervals. Western blotting was then used to detect each peptide over those time intervals.
The plasma was stored until used at −70° C. 10 μg of peptide were added to 2 ml of plasma, plus 7 ml of PBS. This mixture was incubated at 37° C. for different time intervals.
Like biological activity, stability was scored on a scale of 0 to 3.
Stability was determined as the amount of the peptide that remained intact and bound to the specific antibody in the following way:

| Substance | time for which the neuroprotective effect was observed [1] | protection against TBH-induced cell death [1] | CA1 neurones as % of the control neuronal cell number (side not stated) (CA1 hippocampal neurones) | number of CA1 neurones left (side not stated) (CA1 hippocampal neurones) | increase in muscle strength [2] | strength and function of the heart by pressure/volume loops (infarcted murine heart) | peptide detected by Western blotting after 24 hours [3] |
| --- | --- | --- | --- | --- | --- | --- | --- |
| IGF-I: IGF-I receptor binding domain encoded by Exons 3 and 4, common to all splice variants, approximately 70 amino acids [reference compound] | up to 24 hours | 72% | 15.8% | 19.2±7.3 neurones |  |  |  |
| stabilised peptide: SEQ ID NO: 15 with D-Arginine at positions 14 and 15, N-terminus attached to PEG (Jeffamine) via succinic acid bridge, amidated at C-terminus ({PEG (Jeffamine)-Suc}-YQPPSTNKNTKSQ[dR][dR]KGSTFEEHK-NH2; reading uncertain) | ≥ 48 h | 85% |  |  | more than 25% | markedly improved the strength and function of the heart | detected in abundance |
